Patent publication US8658668B2, “PI3 kinase/mTOR dual inhibitor” (Eli Lilly and Company, priority 2011, dated 2014)

Tests used:
PI3Kb = PI3Kb (Homo sapiens, UniProt P42338); assay: PI3K beta Scintillation Proximity Assay; type: biochemical; details: 40 μM ATP; n=2; read-out: absolute IC50
Procedure: Use the PI3K beta Scintillation Proximity Assay (PI3K beta SPA) to determine the IC50 value against PI3Kb for a compound. This assay assesses the activity PI3K beta in the presence of compound inhibitors by measuring incorporation of γ-P33-ATP into phosphatidylinositol (4,5)bisphosphate (PIP2). Perform the kinase reactions in 40 μL reaction volumes in 96-well half-area flat bottom white with clear bottom polystyrene plates. Add PI3K beta to start the reaction. Final reaction conditions are 43.75 mM 2,2-bis(hydroxymethyl)-2,2′,2″-nitrilotriethanol (Bis-Tris) pH 7.0, 87.5 mM sodium chloride (NaCl), 1.76 mM polyethylene glycol octylphenyl ether (Triton™ X-100), 40 μM adenosine triphosphate (ATP), 1.0 mM magnesium chloride (MgCl2) and 1 μCi per well γ-P33-adenosine triphosphate (γ-P33-ATP), 6.0 nM PI3K beta human recombinant enzyme, 0.2 mM palmitoyl-oleoyl phosphatidylserine (POPS), 0.04 mM phosphatidylinositol (4,5)bisphosphate (PIP2), 4% DMSO and serial dilutions of compound (diluted 1:3 from 20,000 to 1 nM). […] Centrifuge plates for 30 min at 1000 revolutions per minute (RPM) and count radioactivity with a Wallac Microbeta Trilux normalized for P33. Derive the IC50 value for the compound by using percent inhibition data calculated using the reaction data relative to on-plate controls (active enzyme versus 62.5 millimolar EDTA-inhibited enzyme controls). […]

[1] = test system: BXF 1228 human tumor xenograft cells; assay: Oncotest tumor clonogenic assay, BXF 1228; type: cell-based; details: colony formation, Bladder BXF 1228, transitional cell carcinoma, wd, read-out: Absolute IC50
[2] = test system: MAXF 401 human tumor xenograft cells; assay: Oncotest tumor clonogenic assay, MAXF 401; type: cell-based; details: MAXF401, colony formation, Mammary MAXF 401, pap. adeno carcinoma, wd, read-out: Absolute IC50
[3] = test system: LXFE 1422 human tumor xenograft cells; assay: Oncotest tumor clonogenic assay, LXFE 1422; type: cell-based; details: colony formation, NSCLC LXFE 1422, squamous cell carcinoma, ud, read-out: Absolute IC50
[4] = test system: SXF 627 human tumor xenograft cells; assay: Oncotest tumor clonogenic assay, SXF 627; type: cell-based; details: colony formation, Sarcoma SXF 627, pleomorphic rhabdomyosarcoma, pd, read-out: Absolute IC50
[5] = test system: CXF 1783 human tumor xenograft cells; assay: Oncotest tumor clonogenic assay, CXF 1783; type: cell-based; details: colony formation, Colon CXF 1783, colon carcinoma, wd, read-out: Absolute IC50
pS240/244 S6RP = assay: In vivo target inhibition in U87MG tumors, pS240/244 S6RP; details: Mus musculus, U-87 MG; for inhibition at 0.5 mg/kg: 0.5 mg/kg oral; for inhibition at 1.5 mg/kg: 1.5 mg/kg oral; for inhibition at 3 mg/kg: 3 mg/kg oral; for inhibition at 6 mg/kg: 6 mg/kg oral; for inhibition at 10 mg/kg: 10 mg/kg oral; for inhibition at 12 mg/kg: 12 mg/kg oral
Procedure: Implant U87MG human glioblastoma cells (5×10^6) subcutaneously into the flank of athymic nude mice in 0.2 mL of matrigel. Ten days post-implantation, dose mice orally according to a time course, single dose/single time point, or dose response protocol for the determination of TMED50 (threshold minimum effective dose). Flash freeze tumors at harvest and collect blood for the determination of parent compound plasma exposure and the calculation of TMEC50 (threshold minimum effective concentration) in the case of dose response studies. Homogenize tumors in 500 μL of XY Lysis Buffer (10 μg/mL Leupeptin, 10 μg/mL Trypsin-Chymotrypsin Inhibitor, 10 μg/mL Tosyl phenyl-alanyl chloromethyl ketone, 10 μg/mL Aprotinin, 60 mM Beta-Glycerol Phosphate, 1% Triton X100, 25 mM Tris pH 7.5, 2.5 mM Pyrophosphate, 150 mM NaCl, 2 mM p-tosyl-L-arginine methyl ester, 15 mM para-nitrophenyl phosphate, 5 mM benzamidine, 1 mM sodium vanadate, 10 mM sodium fluoride, 50 μg/mL phenyl-methane sulfonyl fluoride, 1 mM 1,4-dithiothreitol (DTT), 15 mM EDTA pH 8.0, 5 mM EGTA pH 8.0, 1 μM Microcystin, 1 μM Okadaic Acid, and 1 Roche Complete protease inhibitor mini-tablet per 10 mL) using RNase Free Pellet Pestle (Kimble-Kontes). Aliquot lysates and either assay immediately or store at −80° C. for later testing. Use the multiplex format of Meso Scale Discovery (Gaithersburg, Md.) ELISA technology and measure in vivo target inhibition of PI3K and mTOR to assess effects on phosphorylation of the threonine 308 site of AKT, a downstream effector of PI3K; phosphorylation on the threonine 389 site of p70 S6K and on the serine 240/244 site of S6RP, downstream effectors of mTORC1; phosphorylation of the serine 473 site of AKT, a downstream effector of mTORC2. Add 20 μg of lysate to carbon electrode containing 96-well plates pre-spotted with the appropriate capture antibodies. Probe the protein of interest using a ruthenium labeled detection antibody. Pass current over the electrode in the presence of read buffer containing the co-reactant TPA, and quantitate and record the light generated by electro-chemiluminescence with the MSD Sector 6000 instrument. Calculate percent inhibitions relative to the vehicle control group and perform ANOVA analysis using the JMP software package for the determination of statistical significance.

[6] = test system: MEXF 276 human tumor xenograft cells; assay: Oncotest tumor clonogenic assay, MEXF 276; type: cell-based; details: colony formation, Melanoma MEXF 276, amelanotic melanoma, md, read-out: Absolute IC50

Sequence of PI3Kb (P42338 whole entry): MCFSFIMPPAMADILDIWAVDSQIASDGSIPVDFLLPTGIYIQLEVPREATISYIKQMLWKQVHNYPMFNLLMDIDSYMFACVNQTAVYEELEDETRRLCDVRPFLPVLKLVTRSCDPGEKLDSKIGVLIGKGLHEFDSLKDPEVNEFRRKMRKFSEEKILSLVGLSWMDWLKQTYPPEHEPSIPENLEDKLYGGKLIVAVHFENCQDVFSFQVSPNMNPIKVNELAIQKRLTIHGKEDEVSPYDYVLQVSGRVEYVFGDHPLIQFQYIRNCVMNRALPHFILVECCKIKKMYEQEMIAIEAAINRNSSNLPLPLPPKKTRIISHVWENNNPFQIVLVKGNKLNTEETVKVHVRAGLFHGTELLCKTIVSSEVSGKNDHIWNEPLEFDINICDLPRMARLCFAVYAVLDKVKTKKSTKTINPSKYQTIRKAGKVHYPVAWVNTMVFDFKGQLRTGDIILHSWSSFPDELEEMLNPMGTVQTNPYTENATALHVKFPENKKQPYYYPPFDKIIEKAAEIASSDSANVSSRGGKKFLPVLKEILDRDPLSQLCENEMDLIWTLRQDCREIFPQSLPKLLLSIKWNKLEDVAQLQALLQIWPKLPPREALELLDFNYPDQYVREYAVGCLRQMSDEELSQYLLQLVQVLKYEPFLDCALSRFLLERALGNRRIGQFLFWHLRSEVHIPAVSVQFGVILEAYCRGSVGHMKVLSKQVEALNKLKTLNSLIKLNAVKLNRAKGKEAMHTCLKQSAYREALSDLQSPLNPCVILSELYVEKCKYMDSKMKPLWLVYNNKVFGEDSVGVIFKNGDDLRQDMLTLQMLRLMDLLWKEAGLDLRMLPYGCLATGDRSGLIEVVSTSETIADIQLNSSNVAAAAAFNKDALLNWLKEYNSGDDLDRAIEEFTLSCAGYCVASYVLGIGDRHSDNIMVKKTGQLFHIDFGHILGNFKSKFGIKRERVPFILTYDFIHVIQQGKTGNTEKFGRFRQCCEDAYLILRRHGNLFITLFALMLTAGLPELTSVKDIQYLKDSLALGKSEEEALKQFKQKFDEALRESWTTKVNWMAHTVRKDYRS
Sequence of PI3Kb (P27986 whole entry partner): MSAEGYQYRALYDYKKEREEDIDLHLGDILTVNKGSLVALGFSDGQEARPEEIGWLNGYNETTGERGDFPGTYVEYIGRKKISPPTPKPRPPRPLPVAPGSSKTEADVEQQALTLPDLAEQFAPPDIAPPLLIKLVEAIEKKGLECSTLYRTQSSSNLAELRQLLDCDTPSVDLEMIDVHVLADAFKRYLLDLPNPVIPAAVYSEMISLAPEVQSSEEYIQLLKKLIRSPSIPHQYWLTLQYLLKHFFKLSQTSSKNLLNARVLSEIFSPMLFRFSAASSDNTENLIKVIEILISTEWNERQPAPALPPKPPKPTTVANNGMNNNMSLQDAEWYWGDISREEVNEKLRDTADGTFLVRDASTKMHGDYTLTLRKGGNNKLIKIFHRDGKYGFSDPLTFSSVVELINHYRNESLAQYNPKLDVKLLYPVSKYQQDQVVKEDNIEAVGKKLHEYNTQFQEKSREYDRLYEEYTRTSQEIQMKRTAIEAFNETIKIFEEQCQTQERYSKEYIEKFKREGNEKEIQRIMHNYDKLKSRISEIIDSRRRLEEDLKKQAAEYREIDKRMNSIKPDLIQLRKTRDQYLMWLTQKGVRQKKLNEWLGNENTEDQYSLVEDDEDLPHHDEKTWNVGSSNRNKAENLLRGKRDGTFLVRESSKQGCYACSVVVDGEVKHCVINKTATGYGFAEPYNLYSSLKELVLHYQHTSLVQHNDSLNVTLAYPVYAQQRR

Q: `CO[C@@H](C)Cn1c(=O)n(C)c2cnc3ccc(-c4cncc(C(C)(C)O)c4)cc3c21` [Example 1, 8-[5-(1-Hydroxy-1-methylethyl)pyridin-3-yl]-1-[(2S)-2-methoxypropyl]-3-methyl-1,3-dihydro-2H-imidazo[4,5-c]quinolin-2-one] was tested. Which IC50 (PI3Kb) did it give?
A: Its IC50 is 0.0776 µM.

Q: What about the IC50 [1] of the same compound?
A: Its IC50 is 0.031 µM.

Q: What about the IC50 [2] of the same compound?
A: The IC50 was 0.15 µM.

Q: And the IC50 [3]?
A: The IC50 was 0.231 µM.

Q: And the IC50 [4]?
A: The IC50 was 0.095 µM.

Q: What about the IC50 [5] of the same compound?
A: Its IC50 is 0.029 µM.

Q: And the inhibition at 0.5 mg/kg (pS240/244 S6RP; 0.5 hr post dose)?
A: The inhibition at 0.5 mg/kg was 9%.

Q: And the inhibition at 0.5 mg/kg (pS240/244 S6RP; 4 hr post dose)?
A: Its inhibition at 0.5 mg/kg is 5%.

Q: What about the inhibition at 1.5 mg/kg (pS240/244 S6RP; 0.5 hr post dose) of the same compound?
A: The inhibition at 1.5 mg/kg was 4%.

Q: What about the inhibition at 1.5 mg/kg (pS240/244 S6RP; 4 hr post dose) of the same compound?
A: The inhibition at 1.5 mg/kg was 12%.

Q: What about the inhibition at 3 mg/kg (pS240/244 S6RP; 0.25 hr post dose) of the same compound?
A: The inhibition at 3 mg/kg was -11%.

Q: What about the inhibition at 3 mg/kg (pS240/244 S6RP; 0.5 hr post dose) of the same compound?
A: Its inhibition at 3 mg/kg is 9%.

Q: And the inhibition at 3 mg/kg (pS240/244 S6RP; 1 hr post dose)?
A: Its inhibition at 3 mg/kg is 51%.

Q: What about the inhibition at 3 mg/kg (pS240/244 S6RP; 3 hr post dose) of the same compound?
A: The inhibition at 3 mg/kg was 64%.

Q: What about the inhibition at 3 mg/kg (pS240/244 S6RP; 4 hr post dose) of the same compound?
A: The inhibition at 3 mg/kg was 37%.

Q: What about the inhibition at 6 mg/kg (pS240/244 S6RP; 0.25 hr post dose) of the same compound?
A: The inhibition at 6 mg/kg was 7%.

Q: And the inhibition at 6 mg/kg (pS240/244 S6RP; 0.5 hr post dose)?
A: Its inhibition at 6 mg/kg is 26%.

Q: What about the inhibition at 6 mg/kg (pS240/244 S6RP; 1 hr post dose) of the same compound?
A: Its inhibition at 6 mg/kg is 66%.

Q: And the inhibition at 6 mg/kg (pS240/244 S6RP; 2 hr post dose)?
A: The inhibition at 6 mg/kg was 83%.

Q: What about the inhibition at 6 mg/kg (pS240/244 S6RP; 4 hr post dose) of the same compound?
A: Its inhibition at 6 mg/kg is 58%.

Q: What about the inhibition at 6 mg/kg (pS240/244 S6RP; 6 hr post dose) of the same compound?
A: The inhibition at 6 mg/kg was 55%.

Q: What about the inhibition at 6 mg/kg (pS240/244 S6RP; 12 hr post dose) of the same compound?
A: The inhibition at 6 mg/kg was -35%.

Q: What about the inhibition at 10 mg/kg (pS240/244 S6RP; 0.5 hr post dose) of the same compound?
A: The inhibition at 10 mg/kg was -4%.

Q: What about the inhibition at 10 mg/kg (pS240/244 S6RP; 1 hr post dose) of the same compound?
A: The inhibition at 10 mg/kg was 69%.

Q: And the inhibition at 10 mg/kg (pS240/244 S6RP; 2 hr post dose)?
A: Its inhibition at 10 mg/kg is 89%.

Q: And the inhibition at 10 mg/kg (pS240/244 S6RP; 4 hr post dose)?
A: Its inhibition at 10 mg/kg is 95%.

Q: What about the inhibition at 10 mg/kg (pS240/244 S6RP; 8 hr post dose) of the same compound?
A: Its inhibition at 10 mg/kg is 16%.

Q: What about the inhibition at 12 mg/kg (pS240/244 S6RP; 0.5 hr post dose) of the same compound?
A: The inhibition at 12 mg/kg was 55%.

Q: And the inhibition at 12 mg/kg (pS240/244 S6RP; 4 hr post dose)?
A: Its inhibition at 12 mg/kg is 97%.

Q: And the IC50 [6]?
A: Its IC50 is 0.157 µM.
